Our source for the IC50 and Activity values is ChEMBL document CHEMBL5523720, “Identification of novel GSPT1 degraders by virtual screening and bioassay” (Eur J Med Chem, 2024).

The structures appear in SMILES notation. Activity calls are given as the source filed them. The calls are words filed in the database; no cut-off is given here. Where only a bound is given, the exact number is not on record here.

One experiment has as its system U-266. The experiment in a line: Antiproliferative activity against human U-266 cells incubated for 48 hrs by MTS assay. In kind it is functional, cell-based. As to conditions: U-266, 48 h. A general note: Tetrazolium dyes change colour on reduction, which living cells bring about.
In experiment [1] the test system is U-937. Kind of experiment: Antiproliferative activity against human U-937 cells incubated for 48 hrs by MTS assay. In kind it is functional, cell-based. The following applies: U-937, 48 h.
For a further experiment, the system named is K562. Kind of experiment: Antiproliferative activity against human K562 cells incubated for 48 hrs by MTS assay. Format: functional, cell-based. The following applies: K562, 48 h.
In experiment [2] the test system is OCI-AML2. Kind of experiment: Antiproliferative activity against human OCI-AML2 cells incubated for 48 hrs by MTS assay. Format: functional, cell-based. As to conditions: OCI-AML2, 48 h.
In experiment [3] the test system is OCI-AML2. Kind of experiment: Downregulation of GSPT1 in human OCI-AML2 cells incubated for 8 hrs by Western blotting analysis. As to conditions: dose 5-40 µM. Format: functional, cell-based.
For experiment [4], the system named is U-937. Kind of experiment: Downregulation of GSPT1 in human U-937 cells incubated for 8 hrs by Western blotting analysis. In kind it is functional, cell-based. The following applies: dose 5-40 µM. (In western blotting, separated proteins are transferred to a membrane and probed.)
For experiment [5], the system named is U-937. Kind of experiment: Downregulation of IKZF1 in human U-937 cells incubated for 8 hrs by Western blotting analysis. Format: functional, cell-based. As to conditions: dose 5-40 µM.
The test system of experiment [6] is OCI-AML2. The experiment in a line: Downregulation of IKZF1 in human OCI-AML2 cells incubated for 8 hrs by Western blotting analysis. The following applies: dose 5-40 µM. Format: functional, cell-based.
Experiment [7] relates to U-937. The experiment in a line: Downregulation of CK1alpha in human U-937 cells incubated for 8 hrs by Western blotting analysis. Format: functional, cell-based. As to conditions: dose 5-40 µM.
Experiment [8] concerns the target Eukaryotic peptide chain release factor GTP-binding subunit ERF3A (Homo sapiens) (UniProt P15170). Kind of experiment: Induction of GSPT1 degradation in human OCI-AML2 cells at 10 uM incubated for 8 hrs by Western blotting analysis. Format: cell-based.
Experiment [9] shares this target. Kind of experiment: Induction of GSPT1 degradation in human U-937 cells at 10 uM incubated for 8 hrs by Western blotting analysis. In kind it is cell-based.
For experiment [10], the system named is OCI-AML2. The experiment in a line: Downregulation of CK1alpha in human OCI-AML2 cells incubated for 8 hrs by Western blotting analysis. Format: functional, cell-based. The following applies: dose 5-40 µM.

Chain of Eukaryotic peptide chain release factor GTP-binding subunit ERF3A (Homo sapiens) (P15170 whole entry): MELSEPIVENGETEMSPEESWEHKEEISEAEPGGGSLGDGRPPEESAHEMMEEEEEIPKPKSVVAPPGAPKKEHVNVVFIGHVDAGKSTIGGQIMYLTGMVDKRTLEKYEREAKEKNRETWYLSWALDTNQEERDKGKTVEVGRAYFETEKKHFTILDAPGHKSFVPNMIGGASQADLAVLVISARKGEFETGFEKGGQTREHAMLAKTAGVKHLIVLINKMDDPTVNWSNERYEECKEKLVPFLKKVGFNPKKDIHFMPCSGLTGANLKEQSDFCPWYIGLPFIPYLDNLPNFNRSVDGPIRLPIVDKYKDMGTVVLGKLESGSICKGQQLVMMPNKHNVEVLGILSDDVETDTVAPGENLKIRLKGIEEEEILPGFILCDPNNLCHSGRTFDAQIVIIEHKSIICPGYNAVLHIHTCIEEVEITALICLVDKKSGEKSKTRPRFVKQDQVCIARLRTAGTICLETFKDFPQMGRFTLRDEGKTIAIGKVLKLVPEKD

Consider `Cc1nc2c(C)cccc2cc1C(=O)N/N=C/c1ccccc1`, for which the IC50 is 10.1 µM with U-266, 16.4 µM with U-937 [1], 37.6 µM in the experiment on K562 and 11 µM in the experiment on OCI-AML2 [2].

As to `Cc1nc2ccccc2cc1C(=O)N/N=C/c1ccccn1`, the IC50 in the experiment with U-266, with U-937 [1], with K562 and in the experiment with OCI-AML2 [2] was > 40 µM in each case.

Regarding `CC(C)=NNC(=O)c1cc2cccc(C)c2nc1C`, the IC50 with U-266, in the experiment on U-937 [1], in the experiment with K562 and in the experiment on OCI-AML2 [2] was > 40 µM each time.

As to `Cc1ccc2nc(C)c(C(=O)N/N=C/c3cccc(Cl)c3)cc2c1`, the IC50 in the experiment on U-266, in the experiment with U-937 [1], with K562 and in the experiment on OCI-AML2 [2] was > 40 µM each time.

Take `COc1ccc2ccccc2c1/C=N/NC(=O)c1cc2cccc(C)c2nc1C`: the half-maximal inhibitory concentration (IC50) in the experiment on U-266, in the experiment with U-937 [1], in the experiment with K562 and in the experiment on OCI-AML2 [2] was > 40 µM each time.

Consider `Cc1nc2c(C)cccc2cc1C(=O)N/N=C/c1cccnc1`, for which the 50% inhibitory concentration (IC50) in the experiment on U-266 was 26.6 µM; in the experiment with U-937 [1] it was > 40 µM; in the experiment with K562, > 40 µM; in the experiment on OCI-AML2 [2], 15.6 µM.

For the compound `Cc1nc2c(C)cccc2cc1C(=O)N/N=C/c1ccccc1Cl`, the 50% inhibitory concentration (IC50) in the experiment on U-266 is 3.93 µM; with U-937 [1], 6.89 µM; in the experiment on K562, > 40 µM; in the experiment on OCI-AML2 [2], 2.66 µM.

With `Cc1ccc2nc(C)c(C(=O)N/N=C/c3cccnc3)cc2c1`, the half-maximal inhibitory concentration (IC50) in the experiment on U-266, in the experiment on U-937 [1], with K562 and with OCI-AML2 [2] was > 40 µM throughout.

`Cc1nc2c(C)cccc2cc1C(=O)N/N=C/c1cccc(O)c1`: the Activity result in the experiment on OCI-AML2 [3], in the experiment on U-937 [4], with U-937 [5], with OCI-AML2 [6], in the experiment with U-937 [7] and in the experiment on OCI-AML2 [10] was “Dose-Dependent Effect” throughout. The IC50 with U-266 was 17.7 µM; in the experiment with U-937 [1], 22.6 µM; in the experiment with K562, 19.4 µM; in the experiment with OCI-AML2 [2] it was 17.2 µM. In addition, the result in experiment [8] and in experiment [9] was Active.

For `Cc1nc2ccccc2cc1C(=O)N/N=C/c1cccc(Cl)c1`, the IC50 in the experiment with U-266, with U-937 [1], with K562 and with OCI-AML2 [2] was > 40 µM in each case.

In general, IC50 refers to the concentration that gives 50% inhibition. Low values mean inhibition by little substance, high ones a need for much substance.
